Measurements as given in patent US10413583B2, “Synthetic substrates for enzymes that catalyze reactions of modified cysteines and related methods” (The University of Chicago, priority 2016, dated 2019).

Legend:
[1] = Water solubility of probes (stated in words); assay type: physicochemical
APT2 [2] = target: T1, APT2 (Homo sapiens, UniProt O95372); experiment: In vitro kinetic assays and emission spectra of DPP-1, DPP-4, DPP-5 with APT2 (no detergent); assay type: biochemical
T1 construct: His-tag; made in house; host or cells: E. coli ROSETTA DE3
T1 sequence (O95372 whole entry): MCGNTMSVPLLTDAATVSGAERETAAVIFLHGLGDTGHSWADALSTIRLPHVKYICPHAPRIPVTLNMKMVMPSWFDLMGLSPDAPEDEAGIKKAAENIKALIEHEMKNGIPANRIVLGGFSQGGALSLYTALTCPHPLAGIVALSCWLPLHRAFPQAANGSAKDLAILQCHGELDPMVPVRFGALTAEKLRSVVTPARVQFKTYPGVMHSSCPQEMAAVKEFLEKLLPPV
Protocol: 150 μL of 2 μM DPP-1, DPP4 or DPP-5 in HEPES (20 mM, pH=7.4, 150 mM NaCl) were added to a 96-well optical bottom plate (Nunc 265301, Fisher Scientific, Pittsburgh, Pa., United States of America) at room temperature. 150 μL of either HEPES buffer alone or HEPES buffer containing 100 nM APT1 or APT2 (purification using previous methods), was added using a multi-channel pipette, resulting in a final concentration of 1 μM DPP-1/DPP4/DPP-5 and 50 nM APT1 or APT2. Fluorescence intensities (λex 490/20 nm, λem 545/20 nm, Gain 80, read from bottom with height 4.5 mm, and sweep method) were measured at 15 s time intervals for 30 min at 37° C. Following the 30 min kinetic run, emission spectra were obtained (λex 480/20 nm, Aem515-700 nm, Gain 80, read from bottom with height 4.5 mm, and sweep method).

APT1 = target: T2, APT1 (Homo sapiens, UniProt O75608); experiment: Enzyme kinetics analysis of DPP-5 with APT1; assay type: biochemical; conditions: APT1 50 nM
T2 construct: His-tag; made in house; host or cells: E. coli ROSETTA DE3
T2 sequence (O75608 whole entry): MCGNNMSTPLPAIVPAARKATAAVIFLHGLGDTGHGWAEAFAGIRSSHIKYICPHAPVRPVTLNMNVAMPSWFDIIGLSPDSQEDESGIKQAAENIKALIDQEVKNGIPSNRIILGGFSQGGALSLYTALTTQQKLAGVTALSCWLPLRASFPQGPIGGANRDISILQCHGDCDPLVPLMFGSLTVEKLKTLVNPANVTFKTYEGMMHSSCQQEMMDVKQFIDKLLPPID
Protocol: (§1) 150 μL of 1 M DTT in HEPES buffer was added to different concentrations of 150 μL DPP-5 and then the stable fluorescence intensities of totally deacylated product were measured by the methods described above. Fluorescence intensity of per molar deacylated-product was then calculated by linear least-squares fitting of plots of fluorescence vs. concentration. For Michaelis-Menten constant, in vitro kinetics curves were obtained for different final concentrations of DPP-5 in HEPES with 50 nM APT1 or APT2. The fluorescence intensities measured were then normalized to the concentrations of product by fluorescence-intensity-permolar-product. A Lineweaver-Burk plot was used to calculate the Michaelis constant, KM, and the maximum velocity, Vmax, which is proportional to kcat by concentration of APT1 or APT2. All fits have R^2 values of >0.99.

APT2 [3] = target: T1, APT2; experiment: Enzyme kinetics analysis of DPP-5 with APT2; assay type: biochemical; conditions: APT2 50 nM
Protocol: as §1

CCCCCCCCCCCCCCCC(=O)SC[C@@H](C(=O)NC)N(C)C(=O)Oc1ccc2c(c1)Oc1cc(N3CCN(C(=O)CCC(=O)O)CC3)ccc1C21OC(=O)c2ccccc21 (stereo partly shown) [DPP-5]
water solubility [1]: relatively higher water solubility
enhancement in intensity of fluorescence signal (APT2 [2]; 1 μM probe, 50 nM APT2, 30 minutes, absence of detergents): 350 fold
in vitro kinetics (APT2 [2]; APT2, absence of detergents): more rapid turn-on response
Kcat (APT1): 0.044 s⁻¹
Km (APT1; Lineweaver-Burk): 1.6 µM
Kcat (APT2 [3]): 0.066 s⁻¹
Km (APT2 [3]; Lineweaver-Burk): 2.1 µM
